Data on 16 compounds can be found in ChEMBL document CHEMBL1134178, “Cytotoxic Michael-type amine adducts of alpha-methylene lactones alantolactone and isoalantolactone” (Bioorg Med Chem Lett, 2001).

Assay [1] relates to K562. Description: In vitro inhibitory activity against K562 human leukemia cell line. The class given is functional, cell-based.
The subject of assay [2] is K562. Description: Effect on cell cycle distribution of K562 cells following treatment of 10 x IC50 for 16 hours and percentage of cells in S phase was reported. It is filed as functional, Homo sapiens.
Another assay concerns NCI-H460. Description: Inhibitory activity against H460 lung cancer cell line. It is filed as functional. The note with it: Homo sapiens, read-out: ID50 (the source's name).
In assay [3] the test system is K562. The experiment in a line: Effect on cell cycle distribution of K562 cells following treatment of 10 x IC50 for 16 hours and percentage of apoptotic cells (cells with DNA content less than cells in G1 phase) was reported. It is filed as functional, Homo sapiens.
A further assay has as its system A549. Description: Inhibitory activity against A549 lung cancer cell line. The note with it: Homo sapiens, read-out: ID50 (the source's name). It is filed as functional.
Assay [4] has as its system K562. Description: Inhibitory activity against K562 human leukemia cell line. The note with it: read-out: ID50 (the source's name). The class given is functional.
Another assay has as its system NCI-H520. The experiment in a line: Inhibitory activity against H520 lung cancer cell line. It is filed as functional. The note with it: Homo sapiens, read-out: ID50 (the source's name).
Assay [5] in a line: Inhibitory activity against FF1 normal skin cells. The class given is functional. As to conditions: Homo sapiens, read-out: ID50 (the source's name).
A further assay relates to COLO. Description: Inhibitory activity against COLO skin melanoma cell line. The class given is functional. As to conditions: Homo sapiens, read-out: ID50 (the source's name).
The next assay has as its system MCF7. Description: Inhibitory activity against MCF-7 breast cancer cell line. The class given is functional. The note with it: Homo sapiens, read-out: ID50 (the source's name).
Another assay relates to P388. The experiment in a line: Inhibitory activity against P388 mouse leukemia cell line. The class given is functional. The note with it: read-out: ID50 (the source's name).
The next assay has as its system BT-20. The experiment in a line: Inhibitory activity against BT20 breast cancer cell line. It is filed as functional. The note with it: Homo sapiens, read-out: ID50 (the source's name).
Another assay relates to WiDr. The experiment in a line: Inhibitory activity against WiDR colon adenocarcinoma cell line. The class given is functional. The note with it: Homo sapiens, read-out: ID50 (the source's name).
Assay [6] has as its system K562. The experiment in a line: Effect on cell cycle distribution of K562 cells following treatment of 10 x IC50 for 16 hours and percentage of cells in G2/M phase was reported. The class given is functional, Homo sapiens.
In assay [7] the test system is K562. The experiment in a line: Evaluated for the effect on cell cycle distribution of K562 cells following treatment of 10 x IC50 for 16 hours and percentage of cells in G1 phase was reported. It is filed as functional, Homo sapiens.
For assay [8], the system named is K562. Description: Effect on cell cycle distribution of K562 cells following treatment of 10 x IC50 for 16 hours and c.v. value was reported. The class given is functional, Homo sapiens.

pIC50: −log10 of the molar value.

`C=C1CCC[C@]2(C)C[C@H]3OC(=O)[C@@H](CNCCCN(C)C)[C@H]3C[C@@H]12` had a pIC50 with K562 [1] of 5.22.

Take `C=C1C(=O)O[C@@H]2C[C@@]3(C)CCCC(=C)[C@@H]3C[C@H]12` [ISOALANTOLACTONE]: in the assay with K562 [2], the S was 50%. For the same compound, the pIC50 in the assay on NCI-H460 was 6.22; in the assay with A549 it was 6.22; in the assay with K562 [4], 5.92; in the assay with NCI-H520 it was 6.05; in assay [5], 5.96; in the assay on COLO, 5.68. Further, the pIC50 with MCF7 was 6.22; in the assay on P388, 6.40; with BT-20 it was 5.92; with WiDr, 5.85; with K562 [1], 5.92. Further, the Activity in the assay on K562 [3] was 8.2%. Also, in the assay with K562 [6], the G2/M is given as 12%. For the same compound, the “growth inhibition (GI)” value with K562 [7] worked out at 38%. In the assay on K562 [8], this compound had a c.v of 3.2.

As for `C=C1CCC[C@]2(C)C[C@H]3OC(=O)[C@@H](CNC)[C@H]3C[C@@H]12`, the pIC50 in the assay on K562 [1] was 4.62.

In the assay on K562 [2], `CCN(CC)C[C@@H]1C(=O)O[C@@H]2C[C@@]3(C)CCC[C@H](C)C3=C[C@H]12` returned an S of 52%. In the assay on K562 [3], this compound displayed an Activity of 7.3%. In the assay on K562 [1], this compound showed a pIC50 of 6.15. The compound further registered a G2/M in the assay with K562 [6] of 10%. Further, the G1 in the assay on K562 [7] is 38%. In the assay on K562 [8], this compound gave a c.v of 7.

Turning to `C=C1CCC[C@]2(C)C[C@H]3OC(=O)[C@@H](CN4CCCC4)[C@H]3C[C@@H]12`, the pIC50 in the assay on K562 [1] is 5.30.

In the assay with K562 [1], `C=C1CCC[C@]2(C)C[C@H]3OC(=O)[C@@H](CN(C)C)[C@H]3C[C@@H]12` had a pIC50 of 5.52.

As for `C[C@H]1CCC[C@]2(C)C[C@H]3OC(=O)[C@@H](CN(C)C)[C@H]3C=C12`, the pIC50 in the assay with K562 [1] is 5.70.

`C=C1CCC[C@]2(C)C[C@H]3OC(=O)[C@@H](CN4CCOCC4)[C@H]3C[C@@H]12` had a pIC50 in the assay on K562 [1] of 5.30.

Regarding `C=C1CCC[C@]2(C)C[C@H]3OC(=O)[C@@H](CN4CCCCC4)[C@H]3C[C@@H]12`, the pIC50 in the assay on K562 [1] is 5.30.

`C[C@H]1CCC[C@]2(C)C[C@H]3OC(=O)[C@@H](CN4CCCCC4)[C@H]3C=C12`: the pIC50 with K562 [1] was 5.70.

Take `C=C1C(=O)O[C@@H]2C[C@@]3(C)CCC[C@H](C)C3=C[C@H]12` [HELENINE]: in the assay on K562 [2], the S was determined as 53%. Further, the Activity in the assay with K562 [3] is recorded as 9.9%. The same compound gave a pIC50 in the assay on K562 [1] of 6.15. The G2/M in the assay on K562 [6] turned out to be 17%. In addition, the “growth inhibition (GI)” value in the assay on K562 [7] is given as 30%. The c.v in the assay with K562 [8] stood at 3.4.

Compound `C=C1CCC[C@]2(C)C[C@H]3OC(=O)[C@@H](CNCc4ccccc4)[C@H]3C[C@@H]12` had a pIC50 in the assay with K562 [1] of 4.82.

On to `C=C1CCC[C@]2(C)C[C@H]3OC(=O)[C@@H](CN(C)CCO)[C@H]3C[C@@H]12`, for which the pIC50 in the assay with K562 [1] was 5.40.

`C=C1CCC[C@]2(C)C[C@H]3OC(=O)[C@@H](CN(C)C(C)C(O)c4ccccc4)[C@H]3C[C@@H]12` (stereo partly specified) showed a pIC50 with K562 [1] of 5.52.

In turn, `C=C1CCC[C@]2(C)C[C@H]3OC(=O)[C@@H](CN(CC)CC)[C@H]3C[C@@H]12` displayed a S in the assay on K562 [2] of 52%. The pIC50 in the assay on NCI-H460 is 6.22; in the assay with A549, 6.10; in the assay on K562 [4], 5.70; in the assay on NCI-H520, 6.05; in assay [5], 6.00; with COLO, 5.46. Besides, the pIC50 is 6.10 in the assay with MCF7; 6.52 with P388; 5.92 in the assay on BT-20; 5.82 with WiDr; 5.70 in the assay on K562 [1]. Further, the Activity with K562 [3] turned out to be 4.4%. The G2/M with K562 [6] is 10%. The G1 in the assay with K562 [7] is 39%. Also, in the assay with K562 [8], the c.v was 4.3.

For `C=C1CCC[C@]2(C)C[C@H]3OC(=O)[C@@H](CN(CCC)CCC)[C@H]3C[C@@H]12`, the pIC50 with K562 [1] was 5.30.
